Source: ChEMBL document CHEMBL1909046, “DrugMatrix in vitro pharmacology data”

Legend:
[1] = target: T1, Angiotensin-converting enzyme (Oryctolagus cuniculus, UniProt P12822); experiment: biochemical; type: tissue-based, Lung;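 further: enzymatic inhibition of angiotensin-converting enzyme measured with FAPGG as the substrate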
T1 sequence (P12822 whole entry): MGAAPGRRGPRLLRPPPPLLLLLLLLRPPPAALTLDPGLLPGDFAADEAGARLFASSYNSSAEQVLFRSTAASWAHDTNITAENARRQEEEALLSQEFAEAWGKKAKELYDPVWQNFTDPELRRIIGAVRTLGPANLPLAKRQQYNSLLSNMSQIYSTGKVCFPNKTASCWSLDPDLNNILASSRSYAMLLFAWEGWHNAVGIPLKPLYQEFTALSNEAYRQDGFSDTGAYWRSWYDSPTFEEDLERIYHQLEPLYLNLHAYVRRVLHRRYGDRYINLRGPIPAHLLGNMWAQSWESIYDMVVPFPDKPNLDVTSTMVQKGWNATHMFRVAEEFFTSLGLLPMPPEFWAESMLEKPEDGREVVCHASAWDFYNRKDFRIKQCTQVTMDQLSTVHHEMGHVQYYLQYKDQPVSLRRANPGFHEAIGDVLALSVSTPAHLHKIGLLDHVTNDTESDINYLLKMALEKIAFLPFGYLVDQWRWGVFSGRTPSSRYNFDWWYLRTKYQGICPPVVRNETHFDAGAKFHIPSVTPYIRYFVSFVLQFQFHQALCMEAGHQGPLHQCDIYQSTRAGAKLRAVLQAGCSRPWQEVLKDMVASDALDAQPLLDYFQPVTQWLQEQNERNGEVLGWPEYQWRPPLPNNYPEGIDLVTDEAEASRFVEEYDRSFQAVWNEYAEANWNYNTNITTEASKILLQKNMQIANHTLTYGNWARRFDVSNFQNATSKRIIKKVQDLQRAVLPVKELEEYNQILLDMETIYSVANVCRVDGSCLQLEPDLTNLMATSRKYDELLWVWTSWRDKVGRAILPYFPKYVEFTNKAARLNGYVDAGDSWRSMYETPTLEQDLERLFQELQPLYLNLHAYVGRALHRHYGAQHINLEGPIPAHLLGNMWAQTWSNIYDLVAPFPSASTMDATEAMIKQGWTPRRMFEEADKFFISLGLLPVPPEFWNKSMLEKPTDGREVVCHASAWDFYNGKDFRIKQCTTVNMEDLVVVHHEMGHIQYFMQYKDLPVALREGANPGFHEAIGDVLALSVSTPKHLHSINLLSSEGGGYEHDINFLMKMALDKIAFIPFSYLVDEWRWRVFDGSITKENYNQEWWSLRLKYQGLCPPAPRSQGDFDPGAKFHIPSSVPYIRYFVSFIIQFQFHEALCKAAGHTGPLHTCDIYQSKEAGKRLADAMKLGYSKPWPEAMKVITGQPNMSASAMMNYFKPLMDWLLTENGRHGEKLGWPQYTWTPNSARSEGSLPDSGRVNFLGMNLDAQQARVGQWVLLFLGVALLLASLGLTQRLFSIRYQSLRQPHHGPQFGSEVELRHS

Cathepsin G = target: T2, Cathepsin G (Homo sapiens, UniProt P08311); type: tissue-based; conditions: neutrophil;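 further: inhibition of Cathepsin G enzyme activity, tested on an AMC-conjugated peptide substrate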
T2 sequence (P08311 whole entry): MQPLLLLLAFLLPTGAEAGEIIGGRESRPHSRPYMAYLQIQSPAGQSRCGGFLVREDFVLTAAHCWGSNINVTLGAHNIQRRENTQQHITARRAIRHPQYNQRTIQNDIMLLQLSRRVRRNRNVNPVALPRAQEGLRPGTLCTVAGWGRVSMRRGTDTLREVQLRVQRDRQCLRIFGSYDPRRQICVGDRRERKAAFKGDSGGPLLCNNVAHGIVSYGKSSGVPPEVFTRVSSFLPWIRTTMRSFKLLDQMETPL

Histamine H2 receptor = Histamine H2 receptor (Homo sapiens, UniProt P25021); type: cell membranes, CHO-K1, Membrane; conditions: cho-k1
Sequence of Histamine H2 receptor (P25021 whole entry): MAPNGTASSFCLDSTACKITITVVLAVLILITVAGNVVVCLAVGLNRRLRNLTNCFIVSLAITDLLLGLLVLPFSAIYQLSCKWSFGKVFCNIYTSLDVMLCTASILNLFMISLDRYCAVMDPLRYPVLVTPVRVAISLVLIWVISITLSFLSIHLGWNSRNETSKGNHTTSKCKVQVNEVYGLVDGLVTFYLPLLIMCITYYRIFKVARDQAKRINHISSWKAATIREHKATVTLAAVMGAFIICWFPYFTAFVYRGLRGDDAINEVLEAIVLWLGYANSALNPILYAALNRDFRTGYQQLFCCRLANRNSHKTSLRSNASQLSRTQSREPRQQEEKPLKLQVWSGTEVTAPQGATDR

[2] = target: Voltage-gated inwardly rectifying potassium channel KCNH2 (Homo sapiens, UniProt Q12809); conditions: hek293
Sequence of Voltage-gated inwardly rectifying potassium channel KCNH2 (Q12809 whole entry): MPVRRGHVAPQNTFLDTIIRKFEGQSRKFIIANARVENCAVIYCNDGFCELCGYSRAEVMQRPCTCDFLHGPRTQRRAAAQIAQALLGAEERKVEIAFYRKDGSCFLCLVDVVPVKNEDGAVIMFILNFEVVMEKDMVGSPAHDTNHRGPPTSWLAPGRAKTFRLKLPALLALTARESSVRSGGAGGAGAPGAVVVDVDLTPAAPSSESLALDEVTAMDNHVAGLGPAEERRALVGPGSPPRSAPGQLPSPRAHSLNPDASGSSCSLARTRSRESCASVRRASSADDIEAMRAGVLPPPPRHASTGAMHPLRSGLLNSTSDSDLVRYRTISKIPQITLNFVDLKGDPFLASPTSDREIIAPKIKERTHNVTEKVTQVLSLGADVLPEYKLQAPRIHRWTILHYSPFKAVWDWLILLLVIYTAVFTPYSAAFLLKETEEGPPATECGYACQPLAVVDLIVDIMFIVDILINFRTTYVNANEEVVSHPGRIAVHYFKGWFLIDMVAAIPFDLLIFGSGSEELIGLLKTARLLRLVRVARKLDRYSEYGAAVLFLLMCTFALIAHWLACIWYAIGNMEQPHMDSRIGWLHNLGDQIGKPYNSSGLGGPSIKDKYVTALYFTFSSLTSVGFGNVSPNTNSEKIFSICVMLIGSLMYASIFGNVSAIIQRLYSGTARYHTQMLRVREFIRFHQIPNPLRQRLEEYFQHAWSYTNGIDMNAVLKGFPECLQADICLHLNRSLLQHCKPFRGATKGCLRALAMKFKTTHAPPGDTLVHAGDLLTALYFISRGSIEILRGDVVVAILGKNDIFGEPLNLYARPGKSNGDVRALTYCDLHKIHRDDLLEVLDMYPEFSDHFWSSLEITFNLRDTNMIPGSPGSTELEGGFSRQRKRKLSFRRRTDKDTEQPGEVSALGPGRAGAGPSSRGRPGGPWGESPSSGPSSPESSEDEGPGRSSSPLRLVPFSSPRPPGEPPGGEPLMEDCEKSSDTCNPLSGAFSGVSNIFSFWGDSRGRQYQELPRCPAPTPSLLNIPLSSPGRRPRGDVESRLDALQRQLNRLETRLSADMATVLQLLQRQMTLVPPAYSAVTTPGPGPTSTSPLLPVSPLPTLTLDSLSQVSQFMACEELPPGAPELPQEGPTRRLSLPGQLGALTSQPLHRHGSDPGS

[3] = target: Receptor tyrosine-protein kinase erbB-2 (Homo sapiens, UniProt P04626); experiment: biochemical; type: cell-based, Insect cells; conditions: insect cells;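 further: inhibition of HER2 kinase enzyme activity, measured with Poly(Glu:Tyr) as the phosphorylation substrate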
Sequence of Receptor tyrosine-protein kinase erbB-2 (P04626 whole entry): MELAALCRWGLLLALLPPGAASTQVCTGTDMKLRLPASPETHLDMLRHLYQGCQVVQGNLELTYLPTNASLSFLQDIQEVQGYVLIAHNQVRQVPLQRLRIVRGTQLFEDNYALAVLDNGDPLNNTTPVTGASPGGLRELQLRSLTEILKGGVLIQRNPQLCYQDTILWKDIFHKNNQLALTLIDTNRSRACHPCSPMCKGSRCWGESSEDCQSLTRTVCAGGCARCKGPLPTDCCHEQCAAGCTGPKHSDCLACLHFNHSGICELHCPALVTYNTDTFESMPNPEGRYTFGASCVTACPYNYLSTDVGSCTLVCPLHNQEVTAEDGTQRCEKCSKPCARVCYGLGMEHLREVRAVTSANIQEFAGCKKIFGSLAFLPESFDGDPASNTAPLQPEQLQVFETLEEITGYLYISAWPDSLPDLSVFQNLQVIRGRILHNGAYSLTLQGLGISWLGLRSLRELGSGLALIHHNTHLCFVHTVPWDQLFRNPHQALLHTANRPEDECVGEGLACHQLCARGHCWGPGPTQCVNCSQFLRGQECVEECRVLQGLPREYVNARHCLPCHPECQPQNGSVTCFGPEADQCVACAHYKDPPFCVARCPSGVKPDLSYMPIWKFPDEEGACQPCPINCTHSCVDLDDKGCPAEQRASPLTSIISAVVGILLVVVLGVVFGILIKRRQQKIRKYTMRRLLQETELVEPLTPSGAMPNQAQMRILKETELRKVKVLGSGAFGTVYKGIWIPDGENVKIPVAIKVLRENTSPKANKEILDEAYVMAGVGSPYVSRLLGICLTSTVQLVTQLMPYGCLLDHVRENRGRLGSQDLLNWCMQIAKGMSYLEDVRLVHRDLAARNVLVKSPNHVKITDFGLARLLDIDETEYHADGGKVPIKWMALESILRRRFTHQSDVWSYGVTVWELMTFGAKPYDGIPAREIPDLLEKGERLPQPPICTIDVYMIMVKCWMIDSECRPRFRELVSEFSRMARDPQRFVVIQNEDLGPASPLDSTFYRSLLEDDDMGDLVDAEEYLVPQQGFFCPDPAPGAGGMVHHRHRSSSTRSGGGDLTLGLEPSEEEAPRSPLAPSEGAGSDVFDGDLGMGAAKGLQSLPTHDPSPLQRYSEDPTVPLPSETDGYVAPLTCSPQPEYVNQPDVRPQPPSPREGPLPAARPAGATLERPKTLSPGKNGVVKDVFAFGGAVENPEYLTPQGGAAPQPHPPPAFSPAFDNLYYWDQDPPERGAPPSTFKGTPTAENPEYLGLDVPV

[4] = target: T3, Receptor-type tyrosine-protein phosphatase C (Homo sapiens, UniProt P08575); parameters: species or system Escherichia coli;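 further: inhibition of CD45 enzyme activity measured using DiFMUP as substrate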
T3 sequence (P08575 whole entry): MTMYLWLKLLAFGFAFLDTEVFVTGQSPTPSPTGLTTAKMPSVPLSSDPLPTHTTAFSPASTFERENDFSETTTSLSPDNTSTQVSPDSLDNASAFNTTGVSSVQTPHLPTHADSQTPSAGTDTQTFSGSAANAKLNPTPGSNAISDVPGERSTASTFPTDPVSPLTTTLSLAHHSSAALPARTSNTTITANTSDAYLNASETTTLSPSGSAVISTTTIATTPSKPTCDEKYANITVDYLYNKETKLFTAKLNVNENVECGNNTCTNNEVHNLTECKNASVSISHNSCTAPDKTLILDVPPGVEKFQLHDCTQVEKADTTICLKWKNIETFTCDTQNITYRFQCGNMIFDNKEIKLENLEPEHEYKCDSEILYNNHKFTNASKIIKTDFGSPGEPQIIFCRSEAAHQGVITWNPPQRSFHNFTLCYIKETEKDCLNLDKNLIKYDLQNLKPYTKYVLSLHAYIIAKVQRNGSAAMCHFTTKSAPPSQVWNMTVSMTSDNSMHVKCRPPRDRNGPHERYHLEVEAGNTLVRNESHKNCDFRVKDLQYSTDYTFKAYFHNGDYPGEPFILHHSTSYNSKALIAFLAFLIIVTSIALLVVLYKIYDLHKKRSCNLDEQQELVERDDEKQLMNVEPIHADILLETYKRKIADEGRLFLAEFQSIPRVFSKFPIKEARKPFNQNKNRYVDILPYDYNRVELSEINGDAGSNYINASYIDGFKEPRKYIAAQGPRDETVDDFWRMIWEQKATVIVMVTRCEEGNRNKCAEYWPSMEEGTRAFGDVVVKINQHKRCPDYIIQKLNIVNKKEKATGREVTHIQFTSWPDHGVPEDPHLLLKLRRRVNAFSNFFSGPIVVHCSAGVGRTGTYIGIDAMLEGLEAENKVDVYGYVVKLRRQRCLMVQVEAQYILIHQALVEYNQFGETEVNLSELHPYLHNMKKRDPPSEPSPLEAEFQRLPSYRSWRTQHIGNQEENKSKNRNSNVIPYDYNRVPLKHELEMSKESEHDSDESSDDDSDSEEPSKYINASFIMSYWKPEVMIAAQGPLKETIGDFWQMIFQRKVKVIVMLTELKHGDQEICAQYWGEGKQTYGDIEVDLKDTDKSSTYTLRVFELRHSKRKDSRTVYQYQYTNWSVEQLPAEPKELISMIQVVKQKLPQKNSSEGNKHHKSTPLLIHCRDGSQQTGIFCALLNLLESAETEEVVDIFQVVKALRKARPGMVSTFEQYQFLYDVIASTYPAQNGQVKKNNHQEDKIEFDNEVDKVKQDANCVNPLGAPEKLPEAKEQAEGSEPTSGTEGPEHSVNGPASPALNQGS
Further: in other assays of this panel Not Active means under 50% inhibition at 10 µM.

CC[C@@]1(O)C(=O)OCc2c1cc1n(c2=O)Cc2cc3ccccc3nc2-1 [CAMPTOTHECIN]
Not Active: IC50 [1] | IC50 (Cathepsin G) | IC50 (Histamine H2 receptor) | IC50 [2] | Ki [2] | IC50 [3] | IC50 [4]

COCc1c(C(C)C)nc(C(C)C)c(/C=C/[C@@H](O)C[C@@H](O)CC(=O)O)c1-c1ccc(F)cc1 [CERIVASTATIN]
Not Active: IC50 [1] | IC50 (Cathepsin G) | IC50 (Histamine H2 receptor) | IC50 [2] | Ki [2] | IC50 [3] | IC50 [4]

CC(=O)O[C@]1(C(C)=O)CC[C@H]2[C@@H]3C=C(Cl)C4=CC(=O)CC[C@]4(C)[C@H]3CC[C@@]21C [CHLORMADINONE ACETATE]
Not Active: IC50 [1] | IC50 (Cathepsin G) | IC50 (Histamine H2 receptor) | IC50 [2] | Ki [2] | IC50 [3] | IC50 [4]

O=C1CCc2cc(OCCCCc3nnnn3C3CCCCC3)ccc2N1 [CILOSTAZOL]
Not Active: IC50 [1] | IC50 (Cathepsin G) | IC50 (Histamine H2 receptor) | IC50 [2] | Ki [2] | IC50 [3] | IC50 [4]

COC(=O)[C@H](c1ccccc1Cl)N1CCc2sccc2C1 [CLOPIDOGREL]
Not Active: IC50 [1] | IC50 (Cathepsin G) | IC50 (Histamine H2 receptor) | IC50 [2] | Ki [2] | IC50 [3] | IC50 [4]

C[C@]12CCC(=O)C=C1CC[C@@H]1[C@@H]2C(=O)C[C@@]2(C)[C@H]1CC[C@]2(O)C(=O)CO [CORTISONE]
Not Active: IC50 [1] | IC50 (Cathepsin G) | IC50 (Histamine H2 receptor) | IC50 [2] | Ki [2] | IC50 [3] | IC50 [4]

Cc1ccccc1N1CCN(CCc2nnc3n2CCCC3)CC1 [DAPIPRAZOLE]
Not Active: IC50 [1] | IC50 (Cathepsin G) | IC50 (Histamine H2 receptor) | IC50 [2] | Ki [2] | IC50 [3] | IC50 [4]

CC1=Nc2ccc(Cl)cc2S(=O)(=O)N1 [DIAZOXIDE]
Not Active: IC50 [1] | IC50 (Cathepsin G) | IC50 (Histamine H2 receptor) | IC50 [2] | Ki [2] | IC50 [3] | IC50 [4]

CC(=O)OCC(=O)[C@@]1(OC(C)=O)[C@@H](C)C[C@H]2[C@@H]3C[C@H](F)C4=CC(=O)C=C[C@]4(C)[C@@]3(F)[C@@H](O)C[C@@]21C [DIFLORASONE DIACETATE]
Not Active: IC50 [1] | IC50 (Cathepsin G) | IC50 (Histamine H2 receptor) | IC50 [2] | Ki [2] | IC50 [3] | IC50 [4]

CCc1ccc(C(=O)C(C)CN2CCCCC2)cc1 (configuration not stated) [EPERISONE]
Not Active: IC50 [1] | IC50 (Cathepsin G) | IC50 (Histamine H2 receptor) | IC50 [2] | Ki [2] | IC50 [3] | IC50 [4]

C=C1CC[C@H](O)C/C1=C/C=C1\CCC[C@]2(C)[C@@H]([C@H](C)/C=C/[C@H](C)C(C)C)CC[C@@H]12 [ERGOCALCIFEROL]
Not Active: IC50 [1] | IC50 (Cathepsin G) | IC50 (Histamine H2 receptor) | IC50 [2] | Ki [2] | IC50 [3] | IC50 [4]

CN1C[C@H](C(=O)N[C@]2(C)O[C@@]3(O)[C@@H]4CCCN4C(=O)[C@H](Cc4ccccc4)N3C2=O)C=C2c3cccc4[nH]cc(c34)C[C@H]21 [ERGOTAMINE]
Not Active: IC50 [1] | IC50 (Cathepsin G) | IC50 (Histamine H2 receptor) | IC50 [2] | Ki [2] | IC50 [3] | IC50 [4]

CCc1cccc2c3c([nH]c12)C(CC)(CC(=O)O)OCC3 (configuration not stated) [ETODOLAC]
Not Active: IC50 [1] | IC50 (Cathepsin G) | IC50 (Histamine H2 receptor) | IC50 [2] | Ki [2] | IC50 [3] | IC50 [4]

Nc1nc(=O)[nH]cc1F [FLUCYTOSINE]
Not Active: IC50 [1] | IC50 (Cathepsin G) | IC50 (Histamine H2 receptor) | IC50 [2] | Ki [2] | IC50 [3] | IC50 [4]

O=C1OC2(c3ccc(O)cc3Oc3cc(O)ccc32)c2ccccc21 [FLUORESCEIN]
Not Active: IC50 [1] | IC50 (Cathepsin G) | IC50 (Histamine H2 receptor) | IC50 [2] | Ki [2] | IC50 [3] | IC50 [4]

CC(=O)[C@@]1(O)CC[C@H]2[C@@H]3C[C@H](C)C4=CC(=O)C=C[C@]4(C)[C@@]3(F)[C@@H](O)C[C@@]21C [FLUOROMETHOLONE]
Not Active: IC50 [1] | IC50 (Cathepsin G) | IC50 (Histamine H2 receptor) | IC50 [2] | Ki [2] | IC50 [3] | IC50 [4]
